Inconclusive results and toxic doses are left out.
Tested on: L1210 leukemia ip in BDF1 mice, survival T/C
Experiment: NCI In Vivo Anticancer Drug Screen. Data for tumor model L1210 Leukemia (intraperitoneal) in B6D2F1 (BDF1) mice
Settings: endpoint: mean survival time, higher = longer survival
Summary of the method: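 Antitumor effect is assessed in tumor-bearing animals. Survival in the compound arm is compared with a vehicle-dosed control arm and expressed as their quotient.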

[1] = dose: 100.0 mg/kg/injection, schedule: Q01DX001 (ip), vehicle: Klucel (hydroxypropylcellulose) (HPC)
[2] = dose: 200.0 mg/kg/injection, schedule: Q01DX001 (ip), vehicle: Klucel (hydroxypropylcellulose) (HPC)
[3] = dose: 400.0 mg/kg/injection, schedule: Q01DX001 (ip), vehicle: Klucel (hydroxypropylcellulose) (HPC)
[4] = dose: 100.0 mg/kg/injection, schedule: Q01DX001 (ip), vehicle: saline
[5] = dose: 200.0 mg/kg/injection, schedule: Q01DX001 (ip), vehicle: saline
[6] = dose: 400.0 mg/kg/injection, schedule: Q01DX001 (ip), vehicle: saline
[7] = dose: 50.0 mg/kg/injection, schedule: Q01DX009 (ip), vehicle: saline with Tween-80
[8] = dose: 100.0 mg/kg/injection, schedule: Q01DX009 (ip), vehicle: saline with Tween-80
[9] = dose: 100.0 mg/kg/injection, schedule: Q04DX003 (ip), vehicle: saline
[10] = dose: 200.0 mg/kg/injection, schedule: Q04DX003 (ip), vehicle: saline
[11] = dose: 400.0 mg/kg/injection, schedule: Q04DX003 (ip), vehicle: saline
[12] = dose: 25.0 mg/kg/injection, schedule: Q01DX009 (ip), vehicle: saline
[13] = dose: 25.0 mg/kg/injection, schedule: Q04DX003 (ip), vehicle: saline
[14] = dose: 50.0 mg/kg/injection, schedule: Q01DX009 (ip), vehicle: saline
[15] = dose: 200.0 mg/kg/injection, schedule: Q01DX009 (ip), vehicle: saline with Tween-80
[16] = dose: 400.0 mg/kg/injection, schedule: Q01DX009 (ip), vehicle: saline with Tween-80
[17] = dose: 100.0 mg/kg/injection, schedule: Q04DX003 (ip), vehicle: Klucel (hydroxypropylcellulose) (HPC)
[18] = dose: 200.0 mg/kg/injection, schedule: Q04DX003 (ip), vehicle: Klucel (hydroxypropylcellulose) (HPC)
[19] = dose: 400.0 mg/kg/injection, schedule: Q04DX003 (ip), vehicle: Klucel (hydroxypropylcellulose) (HPC)

## COCCOCC1CO1 (stereo unspecified)
dose: 100.0 mg/kg/injection, schedule: Q01DX009 (ip), vehicle: saline
  T/C: 100 % of control
dose: 200.0 mg/kg/injection, schedule: Q01DX009 (ip), vehicle: saline
  T/C: 105 % of control
dose: 400.0 mg/kg/injection, schedule: Q01DX009 (ip), vehicle: saline
  T/C: 100 % of control

## CCOC(=O)C(NC(=O)NS(=O)(=O)c1ccc(C)cc1)C(=O)OCC
[1]
  T/C: 91 % of control
[2]
  T/C: 92 % of control
[3]
  T/C: 91 % of control

## CCCOC(=O)C(OC(=O)c1ccccc1)C(OC(=O)c1ccccc1)C(=O)OCCC (stereo unspecified)
[4]
  T/C: 104 % of control
[5]
  T/C: 96 % of control
[6]
  T/C: 94 % of control

## Nc1nc(=S)c2ncn(C3OC(CO)CC3O)c2[nH]1 (stereo unspecified)
dose: 10.0 mg/kg/injection, schedule: Q01DX009 (ip), vehicle: other
  T/C: 160 % of control
dose: 88.8 mg/kg/injection, schedule: Q01DX001 (ip), vehicle: carboxymethylcellulose (CMC)
  T/C: 162 % of control
dose: 200.0 mg/kg/injection, schedule: Q01DX001 (ip), vehicle: carboxymethylcellulose (CMC)
  T/C: 189 % of control

## CCOC(=O)C(CC)(CCC(C)C)C(=O)OCC
dose: 25.0 mg/kg/injection, schedule: Q01DX009 (ip), vehicle: saline with Tween-80
  T/C: 97 % of control
[7]
  T/C: 92 % of control
[8]
  T/C: 95 % of control
[9]
  T/C: 95 % of control
[10]
  T/C: 95 % of control
[11]
  T/C: 95 % of control

## Cn1c(=O)c2ccccc2c2cc(Br)ccc21
dose: 100.0 mg/kg/injection, schedule: Q04DX003 (ip), vehicle: other
  T/C: 90 % of control
dose: 200.0 mg/kg/injection, schedule: Q04DX003 (ip), vehicle: other
  T/C: 92 % of control
dose: 400.0 mg/kg/injection, schedule: Q04DX003 (ip), vehicle: other
  T/C: 95 % of control

## COc1ccccc1C(=O)NN
dose: 6.25 mg/kg/injection, schedule: Q04DX003 (ip), vehicle: saline
  T/C: 98 % of control
dose: 12.5 mg/kg/injection, schedule: Q04DX003 (ip), vehicle: saline
  T/C: 98 % of control
[12]
  T/C: 106 % of control
[13]
  T/C: 103 % of control
[14]
  T/C: 110 % of control

## CC(=O)O[C@@]1(C)C(=O)OCC2=CCN3CC[C@@H](OC(=O)[C@H](C)[C@]1(C)OC(C)=O)[C@@H]23
[4]
  T/C: 117 % of control

## COc1cc(N2CCOCC2)ccc1N
[12]
  T/C: 89 % of control
[13]
  T/C: 100 % of control
[14]
  T/C: 95 % of control
dose: 50.0 mg/kg/injection, schedule: Q04DX003 (ip), vehicle: saline
  T/C: 101 % of control
[9]
  T/C: 103 % of control

## CCOC(=O)c1ccc(F)cc1
dose: 100.0 mg/kg/injection, schedule: Q04DX002 (ip), vehicle: saline with Tween-80
  T/C: 101 % of control
dose: 200.0 mg/kg/injection, schedule: Q04DX002 (ip), vehicle: saline with Tween-80
  T/C: 115 % of control
dose: 400.0 mg/kg/injection, schedule: Q04DX002 (ip), vehicle: saline with Tween-80
  T/C: 104 % of control

## CN(C)CCCOC(=O)C1C2CC3OC(=O)C1C3C2 (stereo unspecified)
[9]
  T/C: 93 % of control
[10]
  T/C: 96 % of control
[11]
  T/C: 101 % of control

## O=C(NC1N=C2OC(COC(=O)c3ccccc3)C(OC(=O)c3ccccc3)C2O1)c1ccccc1 (stereo unspecified)
[8]
  T/C: 108 % of control
[15]
  T/C: 93 % of control
[16]
  T/C: 98 % of control

## CC(C)(C)c1ccc(SCN(CSc2ccc(C(C)(C)C)cc2)Cc2ccccc2)cc1
dose: 100.0 mg/kg/injection, schedule: Q01DX001 (ip), vehicle: other
  T/C: 105 % of control
dose: 200.0 mg/kg/injection, schedule: Q01DX001 (ip), vehicle: other
  T/C: 100 % of control
dose: 400.0 mg/kg/injection, schedule: Q01DX001 (ip), vehicle: other
  T/C: 94 % of control

## Cc1ccc(S(=O)(=O)/C=C\S(=O)(=O)c2ccc(C)cc2)cc1
dose: 12.5 mg/kg/injection, schedule: Q01DX009 (ip), vehicle: saline
  T/C: 98 % of control
[12]
  T/C: 105 % of control
dose: 25.0 mg/kg/injection, schedule: Q04DX003 (ip), vehicle: acetone
  T/C: 92 % of control
[14]
  T/C: 86 % of control
dose: 50.0 mg/kg/injection, schedule: Q04DX003 (ip), vehicle: acetone
  T/C: 100 % of control
dose: 100.0 mg/kg/injection, schedule: Q01DX001 (ip), vehicle: acetone
  T/C: 90 % of control

## CCOC(=O)NC1=NCC(C)(C)S1
dose: 75.0 mg/kg/injection, schedule: Q01DX001 (ip), vehicle: saline
  T/C: 97 % of control

## COC1=NS(=O)(=O)CC(c2ccccc2)O1 (stereo unspecified)
dose: 75.0 mg/kg/injection, schedule: Q04DX003 (ip), vehicle: other
  T/C: 102 % of control
dose: 150.0 mg/kg/injection, schedule: Q04DX003 (ip), vehicle: other
  T/C: 86 % of control
dose: 300.0 mg/kg/injection, schedule: Q04DX003 (ip), vehicle: other
  T/C: 94 % of control

## CN(C)c1ccc(C=Nc2ccc(S(N)(=O)=O)cc2)cc1
dose: 100.0 mg/kg/injection, schedule: Q01DX009 (ip), vehicle: Klucel (hydroxypropylcellulose) (HPC)
  T/C: 100 % of control
dose: 200.0 mg/kg/injection, schedule: Q01DX009 (ip), vehicle: Klucel (hydroxypropylcellulose) (HPC)
  T/C: 93 % of control
dose: 400.0 mg/kg/injection, schedule: Q01DX009 (ip), vehicle: Klucel (hydroxypropylcellulose) (HPC)
  T/C: 98 % of control

## O=C(Nc1cccc2ccccc12)Oc1ccc(Cl)cc1Cc1ccccc1
dose: 12.5 mg/kg/injection, schedule: Q04DX002 (ip), vehicle: Klucel (hydroxypropylcellulose) (HPC)
  T/C: 123 % of control
dose: 25.0 mg/kg/injection, schedule: Q04DX002 (ip), vehicle: Klucel (hydroxypropylcellulose) (HPC)
  T/C: 105 % of control
dose: 50.0 mg/kg/injection, schedule: Q04DX002 (ip), vehicle: Klucel (hydroxypropylcellulose) (HPC)
  T/C: 94 % of control
dose: 100.0 mg/kg/injection, schedule: Q04DX002 (ip), vehicle: Klucel (hydroxypropylcellulose) (HPC)
  T/C: 92 % of control
dose: 200.0 mg/kg/injection, schedule: Q04DX002 (ip), vehicle: Klucel (hydroxypropylcellulose) (HPC)
  T/C: 89 % of control

## CCCCCCCCCCCCCCCCC/C=N\N=C(N)N
dose: 15.0 mg/kg/injection, schedule: Q01DX Z (ip), vehicle: carboxymethylcellulose (CMC)
  T/C: 101 % of control
dose: 30.0 mg/kg/injection, schedule: Q01DX Z (ip), vehicle: carboxymethylcellulose (CMC)
  T/C: 96 % of control
dose: 60.0 mg/kg/injection, schedule: Q01DX Z (ip), vehicle: carboxymethylcellulose (CMC)
  T/C: 90 % of control
dose: 60.0 mg/kg/injection, schedule: Q01DX Z (oral), vehicle: carboxymethylcellulose (CMC)
  T/C: 106 % of control
dose: 120.0 mg/kg/injection, schedule: Q01DX Z (ip), vehicle: carboxymethylcellulose (CMC)
  T/C: 104 % of control
dose: 120.0 mg/kg/injection, schedule: Q01DX Z (oral), vehicle: carboxymethylcellulose (CMC)
  T/C: 110 % of control
dose: 240.0 mg/kg/injection, schedule: Q01DX Z (oral), vehicle: carboxymethylcellulose (CMC)
  T/C: 118 % of control
dose: 480.0 mg/kg/injection, schedule: Q01DX Z (oral), vehicle: carboxymethylcellulose (CMC)
  T/C: 118 % of control

## COc1ccc(NC(=O)CC(C)C(=O)O)cc1 (stereo unspecified)
[8]
  T/C: 102 % of control
[15]
  T/C: 90 % of control
[16]
  T/C: 104 % of control

## Nc1nc2nnc(-c3ccccc3)c(-c3ccccc3)n2n1
[1]
  T/C: 93 % of control
[17]
  T/C: 96 % of control
[2]
  T/C: 93 % of control
[18]
  T/C: 101 % of control
[3]
  T/C: 92 % of control
[19]
  T/C: 91 % of control

## CS(=O)(=O)NCCOc1ccc(C(=O)O)cc1
[17]
  T/C: 96 % of control
[18]
  T/C: 101 % of control
[19]
  T/C: 95 % of control

## Cc1cccc(C)c1NC(=S)N(C)C
[12]
  T/C: 101 % of control
[14]
  T/C: 103 % of control
[9]
  T/C: 95 % of control

## CC#CC(O)(C(=O)OCC)C1CCCCC1 (stereo unspecified)
[4]
  T/C: 96 % of control
[5]
  T/C: 113 % of control
[6]
  T/C: 100 % of control

## CCNC(=O)NC(C(=O)OCC)C(=O)OCC
[1]
  T/C: 107 % of control
[2]
  T/C: 98 % of control
[3]
  T/C: 90 % of control

## COc1ccc(OC)c2c1CCCC21OCCO1
[7]
  T/C: 105 % of control
dose: 100.0 mg/kg/injection, schedule: Q01DX001 (ip), vehicle: saline with Tween-80
  T/C: 95 % of control
[8]
  T/C: 102 % of control
dose: 200.0 mg/kg/injection, schedule: Q01DX001 (ip), vehicle: saline with Tween-80
  T/C: 96 % of control
[15]
  T/C: 100 % of control
